Data on 22 compounds can be found in patent US20070135457A1, “Pyrido[2,3-d]pyrimidine-2,4-diamines as pde2 inhibitors” (Pfizer Inc., priority 2003, published 2007).

The target in data set [1] is T1, PDE 2 enzyme isolated from human platelets (Homo sapiens, UniProt O00408).
T1 construct: PDE 2 enzyme was isolated from human platelets; from tissue; host or cells: human platelets (pooled blood from multiple donors); HiTrap Q anion-exchange fraction eluting at about 325 mM NaCl
In words: PDE 2 enzyme scintillation proximity assay (SPA). It is filed as biochemical. Conditions: SPA, 1 μM substrate; read-out: PDE 2 Inhibition. The protocol:
PDE 2 enzyme was isolated from human platelets with approximately 1.4 L of blood from multiple donors used to make the platelet pellets. Platelets were resuspended in approximately 75 mL of lysis buffer [20 mM Tris pH 7.2, 5 mM MgCl2, 250 mM Sucrose, 1 mM DTT, 1 μL/2 mL Sigma Protease inhibitor #8340; Sigma-Aldrich; St. Louis, Mo.] and lysed by sonication at 4° C., with 3 rounds of 1 min bursts then spun at 4° C. overnight at 100,000×g. Cleared lysates were loaded to AKTA Explorer FPLC (Amersham Biosciences; Piscataway, N.J.) in a series of three chromatographic separations, with an average load volume of 25 mL. A 5 mL HiTrap Q anion exchange column (Amersham Biosciences) was used. […] Two major cGMP activity fractions (PDE 5 and PDE 2) were isolated and pooled separately. The PDE 2-pooled fraction total was approximately 40 mL which was dispensed in cryovials of 200 μl/vial and placed in storage at −80° C.
The inhibitory activity of the compounds of formula (I) on recombinant or isolated PDE 2, and other PDE's, was determined using the […] scintillation proximity assay (SPA) kits from Amersham International (Little Chalfont, England). The SPA assays were performed using 96 well plates. The PDE SPA yttrium silicate beads (Amersham Biosciences) bind preferentially to the linear nucleotide, GMP, compared to the cyclic nucleotide, cGMP. ^3H-cGMP was added to the reaction and when the product, ^3H-GMP, was in […] to the beads, the scintillant within the bead was excited, which was detected using a Packard scintillation counter (Perkin-Elmer Life Sciences; Boston, Mass.). The enzyme concentration used was in the linear range and the Km of the enzyme was determined (15 uM). The final substrate concentration was <1/3 of Km (1 μM) so that IC50 values would approximate the Ki values. The assay was validated using literature compounds as controls before testing compounds. Then, PDE catalytic activity measurements obtained in the presence of the test compound, and those obtained in the absence of the test compound, were compared and the lC50 value is determined. […]
Background: SPA uses beads or plates that emit light when radiolabelled molecules are held near them.

T1 sequence (O00408 whole entry): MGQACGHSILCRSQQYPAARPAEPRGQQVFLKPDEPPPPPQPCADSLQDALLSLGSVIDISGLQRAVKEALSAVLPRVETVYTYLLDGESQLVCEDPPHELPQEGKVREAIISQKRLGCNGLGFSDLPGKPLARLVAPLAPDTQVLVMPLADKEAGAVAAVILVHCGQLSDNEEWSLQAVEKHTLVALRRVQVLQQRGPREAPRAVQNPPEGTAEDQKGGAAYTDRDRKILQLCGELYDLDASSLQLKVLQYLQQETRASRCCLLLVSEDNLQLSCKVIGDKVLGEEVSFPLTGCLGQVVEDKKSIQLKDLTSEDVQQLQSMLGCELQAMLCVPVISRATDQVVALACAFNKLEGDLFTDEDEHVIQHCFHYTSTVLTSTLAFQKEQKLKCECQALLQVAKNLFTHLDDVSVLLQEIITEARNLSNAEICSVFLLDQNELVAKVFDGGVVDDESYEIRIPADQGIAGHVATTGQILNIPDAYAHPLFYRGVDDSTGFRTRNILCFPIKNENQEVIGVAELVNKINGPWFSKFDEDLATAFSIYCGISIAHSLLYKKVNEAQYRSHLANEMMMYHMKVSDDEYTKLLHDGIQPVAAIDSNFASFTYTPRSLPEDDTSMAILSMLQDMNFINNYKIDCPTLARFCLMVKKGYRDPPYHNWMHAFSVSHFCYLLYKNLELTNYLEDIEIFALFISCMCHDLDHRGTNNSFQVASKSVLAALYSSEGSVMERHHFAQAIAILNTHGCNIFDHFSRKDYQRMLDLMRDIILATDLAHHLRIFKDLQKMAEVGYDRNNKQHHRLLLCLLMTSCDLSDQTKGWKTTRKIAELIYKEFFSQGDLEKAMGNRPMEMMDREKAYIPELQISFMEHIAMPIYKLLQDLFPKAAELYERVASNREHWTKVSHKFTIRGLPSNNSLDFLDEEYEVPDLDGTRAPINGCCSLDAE

In general, melting point refers to the temperature of the solid-liquid transition. As for `COc1ccc(CNc2nc(NCCc3ccc(F)cc3)nc3ncccc23)cc1OC` [Example 16, N^4-(3,4-Dimethoxy-benzyl)-N^2-[2-(4-fluoro-phenyl)-ethyl]-pyrido[2,3-d]pyrimidine-2,4-diamine], the melting point is 225 to 226 °C. The IC50 in data set [1] is below 50 nM.

As for `COc1cc(CNc2nc(NCCCc3ccc(C(C)(C)O)cc3)nc3ncccc23)cc(OC)c1` [Example 22, 2-(4-{3-[4-(3,5-Dimethoxy-benzylamino)-pyrido[2,3-d]pyrimidin-2-ylamino]-propyl}-phenyl)-propan-2-ol], the melting point was in the range of 70 to 75 °C. The IC50 in data set [1] lay in the range of 50 to 250 nM.

Consider `COc1ccc(CNc2nc(NCc3ccc(C(O)C(F)(F)F)cc3)nc3ncccc23)cc1OC` (centres unmarked) [Example 23, 1-(4-{[4-(3,4-Dimethoxy-benzylamino)-pyrido[2,3-d]pyrimidin-2-ylamino]-methyl}-phenyl)-2,2,2-trifluoro-ethanol], for which the melting point is 121 to 122 °C. For the same compound, the IC50 in data set [1] lay in the range of 250 to 1000 nM.

`COc1ccc(CNc2nc(NCCCc3ccc(C(=O)C(F)(F)F)cc3)nc3ncccc23)cc1OC` [Example 36, 1-(4-{3-[4-(3,4-Dimethoxy-benzylamino)-pyrido[2,3-d]pyrimidin-2-ylamino]-propyl}-phenyl)-2,2,2-trifluoro-ethanone] showed a melting point of 198 to 200 °C. In addition, the IC50 in data set [1] lay within 250 to 1000 nM.

The compound `COc1cc(CCNc2nc(NCc3cc(OC)cc(OC)c3)c3cccnc3n2)cc(OC)c1` [Example 13, N^4-(3,5-Dimethoxy-benzyl)-N^2-[2-(3,5-dimethoxy-phenyl)-ethyl]-pyrido[2,3-d]pyrimidine-2,4-diamine] had a melting point of 95 to 100 °C. Further, the IC50 in data set [1] lay within 50 to 250 nM.

Consider `COc1ccc(CNc2nc(NCCc3ccccc3)nc3ncccc23)cc1OC` [Example 17, N^4-(3,4-Dimethoxy-benzyl)-N^2-phenethyl-pyrido[2,3-d]pyrimidine-2,4-diamine], for which the melting point lay within 217 to 218 °C. For the same compound, the IC50 in data set [1] is below 50 nM.

Consider `CCOc1cc(CNc2nc(NCCCc3ccc(C(C)(C)O)cc3)nc3ncccc23)ccc1OC` [Example 35, 2-(4-{3-[4-(3-Ethoxy-4-methoxy-benzylamino)-pyrido[2,3-d]pyrimidin-2-ylamino]-propyl}-phenyl)-propan-2-ol], for which the melting point was in the range of 150 to 152 °C. The IC50 in data set [1] lay within 250 to 1000 nM.

Consider `COc1cc(CNc2nc(NCc3cccnc3)nc3ncccc23)cc(OC)c1` [Example 4, N^4-(3,5-Dimethoxy-benzyl)-N^2-2-pyridin-3-ylmethyl-pyrido[2,3-d]pyrimidine-2,4-diamine], for which the melting point is 222 to 223 °C. Besides, in data set [1], the IC50 is 250 to 1000 nM.

In turn, `COc1cc(CNc2nc(NCCc3ccccc3)nc3ncccc23)cc(OC)c1` [Example 12, N^4-(3,5-Dimethoxy-benzyl)-N^2-2-phenethyl-pyrido[2,3-d]pyrimidine-2,4-diamine] yielded a melting point of 112 to 114 °C. For the same compound, the IC50 in data set [1] lay within 50 to 250 nM.

`COc1ccc(CCNc2nc(NCc3cc(OC)cc(OC)c3)c3cccnc3n2)cc1` [Example 6, N^4-(3,5-Dimethoxy-benzyl)-N^2-[2-(4-methoxy-phenyl)-ethyl]-pyrido[2,3-d]pyrimidine-2,4-diamine] came in with a melting point of 88 to 89 °C. For the same compound, the IC50 in data set [1] is 250 to 1000 nM.

Regarding `COc1cc(CNc2nc(NCCc3ccccn3)nc3ncccc23)cc(OC)c1` [Example 1, N^4-(3,5-Dimethoxy-benzyl)-N^2-(2-pyridin-2-yl-ethyl)-pyrido[2,3-d]pyrimidine-2,4-diamine], the melting point was 157 to 158 °C. Besides, the IC50 in data set [1] was 50 to 250 nM.

`COc1ccc(CNc2nc(NCCCc3ccc(C(C)(C)O)cc3)nc3ncccc23)cc1OC` [Example 21, 2-(4-{3-[4-(3,4-Dimethoxy-benzylamino)-pyrido[2,3-d]pyrimidin-2-ylamino]-propyl}-phenyl)-propan-2-ol]: the melting point lay in the range of 198 to 199 °C. Also, the IC50 in data set [1] fell in the range of 250 to 1000 nM.

`COc1ccc(CNc2nc(NCCCc3ccc(C(O)C(F)(F)F)cc3)nc3ncccc23)cc1OC` (centres unmarked) [Example 25, 1-(4-{3-[4-(3,4-Dimethoxy-benzylamino)-pyrido[2,3-d]pyrimidin-2-ylamino]-propyl}-phenyl)-2,2,2-trifluoro-ethanol]: the melting point was in the range of 222 to 224 °C. In addition, the IC50 in data set [1] lay within 50 to 250 nM.

As to `COc1ccc(CNc2nc(NCCCc3ccc4nonc4c3)nc3ncccc23)cc1OC` [Example 26, N^2-3-(Benzo[1,2,5]oxadiazol-5-yl-propyl)-N^4-(3,4-dimethoxy-benzyl)-pyrido[2,3-d]pyrrimidine-2,4-diamine], the melting point is 191 to 193 °C. For the same compound, the IC50 in data set [1] lay within 250 to 1000 nM.

Compound `COc1ccc(CNc2nc(NCCCc3ccc(C(C)=O)cc3)nc3ncccc23)cc1OC` [Example 24, 1-(4-{3-[4-(3,4-Dimethoxy-benzylamino)-pyrido[2,3-d]pyrimidin-2-ylamino]-propyl}-phenyl)-ethanone] had a melting point of 184 to 185 °C. For the same compound, the IC50 in data set [1] was 250 to 1000 nM.

In turn, `COc1ccc(CNc2nc(NCc3ccccc3C(F)(F)F)nc3ncccc23)cc1OC` [Example 20, N^4-(3,4-Dimethoxy-benzyl)-N^2-(2-trifluoromethyl-benzyl)-pyrido[2,3-d]pyrimidine-2,4-diamine] showed a melting point of 227 to 228 °C. In data set [1], the IC50 lay in the range of 250 to 1000 nM.

Compound `CCOc1cc(CNc2nc(NCCCc3ccccc3)nc3ncccc23)ccc1OC` [Example 34, N^4-(3-Ethoxy-4-methoxy-benzyl)-N^2-(3-phenyl-propyl)-pyrido[2,3-d]pyrimidine-2,4-diamine] displayed a melting point of 181 to 182 °C. For the same compound, the IC50 in data set [1] is 250 to 1000 nM.

`COc1ccc(CNc2nc(NCCOc3ccccc3)nc3ncccc23)cc1OC` [Example 19, N^4-(3,4-Dimethoxy-benzyl)-N^2-(2-phenoxy-ethyl)-pyrido[2,3-d]pyrimidine-2,4-diamine] yielded a melting point of 227 to 228 °C. The IC50 in data set [1] was 50 to 250 nM.

Compound `COc1cc(CNc2nc(NCc3ccc(C(C)(C)O)cc3)nc3ncccc23)cc(OC)c1` [Example 11, 2-(4-{[4-(3,5-Dimethoxy-benzylamino)-pyrido[2,3-d]pyrmidin-2-ylamino]-methyl}-phenyl)-propan-2-ol] returned a melting point of 105 to 109 °C. In addition, the IC50 in data set [1] lay within 250 to 1000 nM.

With `COc1cc(CNc2nc(NCCc3cccs3)nc3ncccc23)cc(OC)c1` [Example 10, N^4-(3,5-Dimethoxy-benzyl)-N^2-(2-thiophen-2-yl-ethyl)-pyrido[2,3-d]pyrimidine-2,4-diamine], the melting point fell in the range of 120 to 121 °C. Besides, the IC50 in data set [1] is below 50 nM.

Compound `COc1cc(CNc2nc(NCCc3cccnc3)nc3ncccc23)cc(OC)c1` [Example 2, N^4-(3,5-Dimethoxy-benzyl)-N^2-(2-pyridin-3-yl-ethyl)-pyrido[2,3-d]pyrimidine-2,4-diamine] displayed a melting point of 185 to 186 °C. In data set [1], the IC50 is 50 to 250 nM.

The compound `COc1ccc(CNc2nc(NCCc3cccc(F)c3)nc3ncccc23)cc1OC` [Example 14, N^4-(3,4-Dimethoxy-benzyl)-N^2-[2-(3-fluoro-phenyl)-ethyl]-pyrido[2,3-d]pyrimidine-2,4-diamine] yielded a melting point of 227 to 228 °C. In data set [1], the IC50 was in the range of 50 to 250 nM.
